Values quoted from earlier work, collected in US9687482B2, “Stable pharmaceutical composition comprising solifenacin, and method for preparing the same” (CJ HEALTHCARE CORPORATION, priority 2014, dated 2017).

Target: muscarinic M3 receptors (Homo sapiens, UniProt P20309)
Details: reported

Chain of muscarinic M3 receptors (P20309 whole entry): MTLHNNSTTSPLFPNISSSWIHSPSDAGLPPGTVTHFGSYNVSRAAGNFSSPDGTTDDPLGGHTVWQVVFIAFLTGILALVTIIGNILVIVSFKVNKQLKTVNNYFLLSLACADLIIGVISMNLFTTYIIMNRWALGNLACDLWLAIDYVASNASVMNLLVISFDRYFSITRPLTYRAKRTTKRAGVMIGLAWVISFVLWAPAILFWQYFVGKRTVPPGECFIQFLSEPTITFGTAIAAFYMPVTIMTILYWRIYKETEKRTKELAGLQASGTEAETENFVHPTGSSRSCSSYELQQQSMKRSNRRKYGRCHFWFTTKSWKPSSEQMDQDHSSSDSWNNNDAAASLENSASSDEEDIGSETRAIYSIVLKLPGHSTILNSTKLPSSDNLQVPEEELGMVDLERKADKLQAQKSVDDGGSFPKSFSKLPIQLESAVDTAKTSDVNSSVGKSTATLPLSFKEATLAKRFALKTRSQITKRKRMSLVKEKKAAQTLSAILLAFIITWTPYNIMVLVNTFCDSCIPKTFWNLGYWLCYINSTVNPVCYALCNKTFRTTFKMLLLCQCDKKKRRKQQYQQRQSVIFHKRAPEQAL

O=C(O[C@H]1CN2CCC1CC2)N1CCc2ccccc2[C@@H]1c1ccccc1 [Solifenacin, (1R,3′R)-3′-quinuclidinyl-1-phenyl-1,2,3,4-tetrahydro-2-isoquinoline carboxylate]
antagonistic action against muscarinic M3 receptors: excellent selective antagonistic action
